Reference: ChEMBL document CHEMBL6096689, “Structure-Guided Development of ClpP Agonists with Potent Therapeutic Activities against Staphylococcus aureus Infection” (J Med Chem, 2025)
In brackets after ≈: the same amount, converted by molar mass. Activity calls are given as the source filed them. No cut-off for these calls is given here.

Key:
[1] = Therapeutic index, ratio of IC50 for HEK293T/17 cells to MIC for Staphylococcus aureus Newman; type: toxicity, cell-based; conditions: human, read-out: TI
[2] = molecular target: T1, ATP-dependent Clp protease proteolytic subunit (Staphylococcus aureus (strain NCTC 8325)) (UniProt Q2G036); test: Potency index, ratio of ONC212 EC50 to test compound EC50 for agonist activity at Staphylococcus aureus ClpP extracted from Escherichia coli BL21 (DE3) cells using FITC-casein as substrate assessed as substrate hydrolysis preincubated for 60 mins followed by substrate addition and measured after 1 hrs by fluorescence based analysis; conditions: time 120.0 min
T1 sequence (whole entry): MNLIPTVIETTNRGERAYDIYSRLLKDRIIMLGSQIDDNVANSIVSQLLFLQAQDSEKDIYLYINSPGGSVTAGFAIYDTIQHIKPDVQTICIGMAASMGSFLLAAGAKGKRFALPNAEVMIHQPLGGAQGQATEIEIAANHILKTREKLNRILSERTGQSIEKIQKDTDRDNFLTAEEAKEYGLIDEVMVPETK

[3] = molecular target: ATP-dependent Clp protease proteolytic subunit, mitochondrial (Homo sapiens, UniProt Q16740); test: Induction of thermal stabilization of human ClpP extracted from Escherichia coli Rosetta (DE3) cells assessed as change in melting temperature at 10 uM incubated for 10 mins by DSF analysis
[4] = test system: Staphylococcus aureus; test: Antibacterial activity against Staphylococcus aureus 8325-4 harboring ClpP mutant assessed as inhibition of visible growth of bacteria incubated for 18 hrs by absorbance based assay; type: functional
[5] = test system: Staphylococcus aureus; test: Antibacterial activity against CLpP overexpressing Staphylococcus aureus 8325-4 assessed as inhibition of visible growth of bacteria incubated for 18 hrs by absorbance based assay; type: functional, organism-based
[6] = test system: Staphylococcus aureus; test: microbe, parasite or virus in culture; type: functional; conditions: NRS-1, time 18 hrs
Description: Antibacterial activity against methicillin-resistant Staphylococcus aureus NRS-1 assessed as inhibition of visible growth of bacteria incubated for 18 hrs by absorbance based analysis

[7] = test system: Staphylococcus aureus; test: microbe, parasite or virus in culture; type: functional; conditions: time 18 hrs
Description: Antibacterial activity against multidrug-resistant Staphylococcus aureus clinical isolate XJ051 assessed as inhibition of visible growth of bacteria incubated for 18 hrs by absorbance based analysis

[8] = test system: Staphylococcus aureus; test: microbe, parasite or virus in culture; type: functional; conditions: time 18 hrs; remark: listed apart in the source
Description: Antibacterial activity against multidrug-resistant Staphylococcus aureus clinical isolate XJ052 assessed as inhibition of visible growth of bacteria incubated for 18 hrs by absorbance based analysis

[9] = test system: Staphylococcus aureus; test: Antibacterial activity against Staphylococcus aureus USA300 infected in Zebrafish infection model assessed as increase in zebrafish survival at 5 mg/kg pre-infected for 1 hrs followed by compound addition and measured after 5 days; type: functional, organism-based; conditions: time 5.0 day
[10] = test system: Staphylococcus aureus; test: Antibacterial activity against Staphylococcus aureus USA300 infected in Zebrafish infection model assessed as increase in zebrafish survival at 25 mg/kg pre-infected for 1 hrs followed by compound addition and measured after 5 days; type: functional, organism-based; conditions: time 5.0 day
[11] = test system: Staphylococcus aureus; test: Antibacterial activity against Staphylococcus aureus USA300 infected in female ICR mouse peritonitis model assessed as increase in mouse survival at 25 to 100 mg/kg, ip pre-infected for 1 hrs followed by compound addition and measured after 5 days relative to control; type: functional; conditions: dose 25-100 mg/kg, time 5 day
[12] = test system: Staphylococcus aureus; test: Antibacterial activity against Staphylococcus aureus USA300 infected in female ICR mouse peritonitis model assessed as reduction in bacterial load in heart at 25 to 100 mg/kg, ip pre-infected for 1 hrs followed by compound addition and measured after 5 days relative to control; type: functional; conditions: dose 25-100 mg/kg, time 5 day
[13] = test system: Staphylococcus aureus; test: Antibacterial activity against Staphylococcus aureus USA300 infected in female ICR mouse peritonitis model assessed as reduction in bacterial load in liver at 25 to 100 mg/kg, ip pre-infected for 1 hrs followed by compound addition and measured after 5 days relative to control; type: functional; conditions: dose 25-100 mg/kg, time 5 day
[14] = Toxicity in female ICR mouse model of peritonitis infected with Staphylococcus aureus USA300 assessed as effect on body weight at 50 mg/kg, ip pre-infected for 1 hrs followed by compound addition and measured after 5 days; type: organism-based; conditions: in vivo, 120 h, time 5 day
[15] = Toxicity in female ICR mouse model of peritonitis infected with oxacillin-resistant Staphylococcus aureus clinical isolate XJ049 assessed as effect on body weight at 50 mg/kg, ip pre-infected for 1 hrs followed by compound addition and measured after 5 days; type: organism-based; conditions: in vivo, 120 h, time 5 day

Sequence of ATP-dependent Clp protease proteolytic subunit, mitochondrial (Q16740 whole entry): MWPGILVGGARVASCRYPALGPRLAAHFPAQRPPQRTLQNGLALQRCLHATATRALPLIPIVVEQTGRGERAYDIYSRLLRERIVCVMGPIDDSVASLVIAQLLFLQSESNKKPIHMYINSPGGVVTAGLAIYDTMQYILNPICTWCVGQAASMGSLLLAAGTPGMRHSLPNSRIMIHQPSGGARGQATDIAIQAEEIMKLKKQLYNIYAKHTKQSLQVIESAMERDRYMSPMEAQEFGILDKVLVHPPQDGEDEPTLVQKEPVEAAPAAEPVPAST

Compound: CC[C@H](C)[C@H]1C(=O)N(Cc2ccc(OC)c3ccccc23)C[C@@H]2N(C(=O)NCCCC(F)(F)F)CCC(=O)N12
- selectivity ratio [1]: 190
- Ratio EC50 [2]: 2.2
- ΔTm [3]: 18 °C
- MIC [4]: > 128 µg/mL
- Activity [5]: Active
- MIC [6]: 0.13 µg/mL (≈ 0.237 µM)
- MIC [7]: 0.03 µg/mL (≈ 0.0547 µM)
- MIC [8]: 0.13 µg/mL (≈ 0.237 µM)
- Activity [9]: Active; Comparable To 25 Mg/Kg Of (R)-Zg197
- Activity [10]: Active
- Activity [11]: 89%
- Activity [12]: 2 log10CFU/g
- Activity [13]: 2 log10CFU/g
- Activity [14]: Non-toxic
- Activity [15]: Non-toxic
